Test results reported in patent US8182837B2, “Methods and compositions for reducing the risk associated with the administration of opioid analgesics in patients with diagnosed or undiagnosed respiratory illness” (QRxPharma Limited, priority 2003, dated 2012).
Where two headings read alike, the source gives them in different places.

How the values were obtained:
[1] = cited from earlier work; for lower threshold for an initial dosage resulting in production of analgesia: naive human adult
[2] = P=0.033; of borderline clinical significance

| Compound | lower threshold for an initial dosage resulting in production of analgesia ([1]; intravenous route) | lower threshold for an initial dosage resulting in production of analgesia ([1]; oral route) | difference mean, pre-treatment VAS greater than steady-state VAS [2] | analgesic potency relative to morphine (as a function of mass of dose) ([1]; in vivo) |
| --- | --- | --- | --- | --- |
| CN1CC[C@]23c4c5ccc(O)c4O[C@H]2[C@@H](O)C=C[C@H]3[C@H]1C5 [Morphine, morphine] | 4-5 mg every four hours | 30 mg every four hours | 1.2 cm | – |
| COc1ccc2c3c1O[C@H]1C(=O)CC[C@@]4(O)[C@@H](C2)N(C)CC[C@]314 [oxycodone] | – | 10 mg every four hours | – | about 1.5 times |
